Patent US9630894B2, “Energy efficient method and apparatus for the extraction of biomolecules from dilute aqueous solution” (DYNASEP INC., priority 2012, dated 2017)
Entries after “also recorded” stand apart in the source; their conditions may differ.

Columns and labels:
fermentation cultures [1] = assay: DME toxicity study: viability by colony forming units (CFU) after 24 hours; assay type: cell-based
Experimental: (§1) Toxicity studies were performed to determine the effects of DME on fermentation cultures. Cell growth, viability and solvent production were measured to determine what effect DME has on fermentation cultures. Cell growth was monitored by absorption measurements taken at 600 nm (A600). Viability was measured by counting the colony forming units (CFU) after 24 hours. Solvent production was quantified by HPLC.
(§2) The first round of testing was performed using media that had been sparged with DME gas at 23° C. The amount of DME absorbed into the media was measured by weight gain after sparging. […] Two control cultures were also used for direct comparison of cultures with and without the presence of DME.

fermentation cultures [2] = assay: DME toxicity study: solvent production / metabolite analysis by HPLC; assay type: cell-based; details: for Acetate concentration / Acetoin concentration / Acetone concentration / Butanol concentration / Butyrate concentration / Ethanol concentration / Glucose concentration: 196 hours after inoculation
Experimental: as §1, §2
A second round of testing was performed at lower DME concentrations. The concentration of DME varied from 0.7 wt. % to 2.9 wt. %. Cell densities were measured between 3 and 64 hours after inoculation. […] Based on the solvent measurements in Table 8 and Table 9 solvent production was also unaffected by DME at 0.7 wt. %. […] This is apparent after examination of the cell density and solvent production for samples 1-5, 2-1, 2-4 and 2-5 in comparison to the control samples 1-B and 2-B.

[3] = DME saturation concentration in fermentation broth; assay type: physicochemical; details: fermentation conditions of 38° C.
[4] = cited from earlier work
[5] = culture 2-1, weight % DME printed as ?

COC [DME, dimethyl ether]
effect on cell viability (CFU) (fermentation cultures [1]; DME approximately 3 wt. %, cultures 1-2 and 1-3): not toxic
effect on cell viability (CFU) (fermentation cultures [1]; DME approximately 4 wt. %, second set of cultures): toxicity issues
CFU/ml after 24 hours (fermentation cultures [1]; culture 1-1, […] DME): 770 CFU/ml
CFU/ml after 24 hours (fermentation cultures [1]; culture 1-2, 3.48% DME): >10000 CFU/ml
CFU/ml after 24 hours (fermentation cultures [1]; culture 1-3, […] DME): 200000 CFU/ml
CFU/ml after 24 hours (fermentation cultures [1]; [5]): 0 CFU/ml
CFU/ml after 24 hours (fermentation cultures [1]; culture 2-2, 3.92% DME): 4480 CFU/ml
CFU/ml after 24 hours (fermentation cultures [1]; culture 2-3, 3.72% DME): 130 CFU/ml
effect on solvent production (fermentation cultures [2]; DME at 0.7 wt. %): unaffected; also recorded: no noticeable effect
Metabolite conc. Final Acetate (fermentation cultures [2]; culture 1-2, 3.48% DME): 42.01 mM
Metabolite conc. Final Acetoin (fermentation cultures [2]; culture 1-2, 3.48% DME): 0.00 mM
Metabolite conc. Final Acetone (fermentation cultures [2]; culture 1-2, 3.48% DME): 0.00 mM
Metabolite conc. Final Butanol (fermentation cultures [2]; culture 1-2, 3.48% DME): 0.00 mM
Metabolite conc. Final Butyrate (fermentation cultures [2]; culture 1-2, 3.48% DME): 101.72 mM
Metabolite conc. Final Ethanol (fermentation cultures [2]; culture 1-2, 3.48% DME): 0.00 mM
Metabolite conc. Final Glucose (fermentation cultures [2]; culture 1-2, 3.48% DME): 410.70 mM
Acetate concentration (fermentation cultures [2]; culture 1-2, DME 18.1 g/L): 45.7 mM
Acetoin concentration (fermentation cultures [2]; culture 1-2, DME 18.1 g/L): 1.7 mM
Acetone concentration (fermentation cultures [2]; culture 1-2, DME 18.1 g/L): 4.9 mM
Butanol concentration (fermentation cultures [2]; culture 1-2, DME 18.1 g/L): 11.7 mM
Butyrate concentration (fermentation cultures [2]; culture 1-2, DME 18.1 g/L): 80.8 mM
Ethanol concentration (fermentation cultures [2]; culture 1-2, DME 18.1 g/L): 1.9 mM
Glucose concentration (fermentation cultures [2]; culture 1-2, DME 18.1 g/L): 381.5 mM
Metabolite conc. Final Acetate (fermentation cultures [2]; culture 1-3, […] DME): 47.46 mM
Metabolite conc. Final Acetoin (fermentation cultures [2]; culture 1-3, […] DME): 0.00 mM
Metabolite conc. Final Acetone (fermentation cultures [2]; culture 1-3, […] DME): 8.33 mM
Metabolite conc. Final Butanol (fermentation cultures [2]; culture 1-3, […] DME): 14.84 mM
Metabolite conc. Final Butyrate (fermentation cultures [2]; culture 1-3, […] DME): 89.52 mM
Metabolite conc. Final Ethanol (fermentation cultures [2]; culture 1-3, […] DME): 0.00 mM
Metabolite conc. Final Glucose (fermentation cultures [2]; culture 1-3, […] DME): 380.17 mM
Metabolite conc. Final Acetate (fermentation cultures [2]; [5]): 33.46 mM
Metabolite conc. Final Acetoin (fermentation cultures [2]; [5]): 0.00 mM
Metabolite conc. Final Acetone (fermentation cultures [2]; [5]): 0.00 mM
Metabolite conc. Final Butanol (fermentation cultures [2]; [5]): 0.00 mM
Metabolite conc. Final Butyrate (fermentation cultures [2]; [5]): 94.00 mM
Metabolite conc. Final Ethanol (fermentation cultures [2]; [5]): 0.00 mM
Metabolite conc. Final Glucose (fermentation cultures [2]; [5]): 432.02 mM
Metabolite conc. Final Acetate (fermentation cultures [2]; culture 2-2, 3.92% DME): 42.17 mM
Metabolite conc. Final Acetoin (fermentation cultures [2]; culture 2-2, 3.92% DME): 0.00 mM
Metabolite conc. Final Acetone (fermentation cultures [2]; culture 2-2, 3.92% DME): 0.00 mM
Metabolite conc. Final Butanol (fermentation cultures [2]; culture 2-2, 3.92% DME): 0.00 mM
Metabolite conc. Final Butyrate (fermentation cultures [2]; culture 2-2, 3.92% DME): 91.28 mM
Metabolite conc. Final Ethanol (fermentation cultures [2]; culture 2-2, 3.92% DME): 0.00 mM
Metabolite conc. Final Glucose (fermentation cultures [2]; culture 2-2, 3.92% DME): 418.43 mM
Acetone concentration (fermentation cultures [2]; culture 2-2, DME 6.8 g/L): 10.2 mM
Butanol concentration (fermentation cultures [2]; culture 2-2, DME 6.8 g/L): 23.6 mM
Butyrate concentration (fermentation cultures [2]; culture 2-2, DME 6.8 g/L): 55.7 mM
Ethanol concentration (fermentation cultures [2]; culture 2-2, DME 6.8 g/L): 3.8 mM
Metabolite conc. Final Acetate (fermentation cultures [2]; culture 2-3, 3.72% DME): 34.46 mM
Metabolite conc. Final Acetoin (fermentation cultures [2]; culture 2-3, 3.72% DME): 0,00 mM
Metabolite conc. Final Acetone (fermentation cultures [2]; culture 2-3, 3.72% DME): 0.00 mM
Metabolite conc. Final Butyrate (fermentation cultures [2]; culture 2-3, 3.72% DME): 86.91 mM
Metabolite conc. Final Ethanol (fermentation cultures [2]; culture 2-3, 3.72% DME): 0.00 mM
Acetate concentration (fermentation cultures [2]; culture 2-3, DME 6.6 g/L): 44.6 mM
Acetoin concentration (fermentation cultures [2]; culture 2-3, DME 6.6 g/L): 5.6 mM
Acetone concentration (fermentation cultures [2]; culture 2-3, DME 6.6 g/L): 9.6 mM
Butanol concentration (fermentation cultures [2]; culture 2-3, DME 6.6 g/L): 21.6 mM
Butyrate concentration (fermentation cultures [2]; culture 2-3, DME 6.6 g/L): 57.3 mM
Ethanol concentration (fermentation cultures [2]; culture 2-3, DME 6.6 g/L): 3.8 mM
Glucose concentration (fermentation cultures [2]; culture 2-3, DME 6.6 g/L): 338.3 mM
Acetate concentration (fermentation cultures [2]; culture 2-4, DME 29.1 g/L): 42.5 mM
Acetoin concentration (fermentation cultures [2]; culture 2-4, DME 29.1 g/L): 0.0 mM
Acetone concentration (fermentation cultures [2]; culture 2-4, DME 29.1 g/L): 2.1 mM
Butanol concentration (fermentation cultures [2]; culture 2-4, DME 29.1 g/L): 3.7 mM
Butyrate concentration (fermentation cultures [2]; culture 2-4, DME 29.1 g/L): 94.8 mM
Ethanol concentration (fermentation cultures [2]; culture 2-4, DME 29.1 g/L): 0.0 mM
Glucose concentration (fermentation cultures [2]; culture 2-4, DME 29.1 g/L): 403.0 mM
Acetate concentration (fermentation cultures [2]; culture 2-5, DME 27.9 g/L): 41.7 mM
Acetoin concentration (fermentation cultures [2]; culture 2-5, DME 27.9 g/L): 0.0 mM
Acetone concentration (fermentation cultures [2]; culture 2-5, DME 27.9 g/L): 4.3 mM
Butanol concentration (fermentation cultures [2]; culture 2-5, DME 27.9 g/L): 7.2 mM
Butyrate concentration (fermentation cultures [2]; culture 2-5, DME 27.9 g/L): 94.5 mM
Ethanol concentration (fermentation cultures [2]; culture 2-5, DME 27.9 g/L): 0.0 mM
Glucose concentration (fermentation cultures [2]; culture 2-5, DME 27.9 g/L): 396.9 mM
effect on solvent production (fermentation cultures [2]; cultures containing DME, 3 to 4 wt. %): greatly reduced
amount of DME in the broth (saturation) [3]: ~2.3 wt. %
solubility in water [4]: approximately 20 wt. %
